Experimental data published in patent US20220402862A1 (Intellia Therapeutics, Inc., priority 2019, published 2022).
Several values for one entry are separate records, joined by “and”; a condition that tells them apart may be missing. Equal entries are not always repeated.

How the values were obtained:
[1] = Dynamic light scattering of LNPs: Z-average diameter, number average diameter, PDI; type: physicochemical; conditions: LNP, sg:mRNA 1:1, N/P about 6, 50/9/38/3; Table 2, Experiments 2-20
In short: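 Values reported are the Z-average (intensity-weighted mean size), the number-average diameter and the PDI (spread of sizes, 0 = fully uniform). All three came from dynamic light scattering of LNP preparations after dilution in PBS.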

[2] = pKa measurement of unformulated amine lipid (fluorescence, method of Jayaraman et al.); type: physicochemical; conditions: 100 μM in 0.1 M phosphate buffer, pH 2.0-12.0
Description: The pKa of each amine lipid was determined according to the method in Jayaraman, et al. (Angewandte Chemie, 2012) with the following adaptations. […] Lipid was diluted to 100 μM in 0.1 M phosphate buffer (Boston Bioproducts) where the pH ranged from 2.0-12.0. Fluorescence intensity was measured using excitation and emission wavelengths of 321 nm and 448 nm.

Transthyretin (TTR) = assay: Serum TTR ELISA in mice after LNP dosing; type: in vivo, CD-1 female mice; conditions: guide G282 experiments; for Serum TTR % TSS: mouse serum TTR relative to TSS control; for Serum TTR: mouse serum, ELISA
In short: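 Serum mouse TTR was quantified by ELISA at 10,000-fold dilution for 0.1 mg/kg and 10,000/2,500-fold for 0.3 mg/kg. Samples came from female CD-1 mice (6–10 weeks) killed 6 or 7 days after a single intravenous LNP dose, usually 0.1 mg/kg.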

[3] = RNA encapsulation efficiency of LNPs (Ribogreen fluorescence assay); type: physicochemical; conditions: LNP, sg:mRNA 1:1, N/P about 6, amine lipid/DSPC/cholesterol/PEG-2k-DMG 50/9/38/3; Table 2, Experiments 2-20
In short: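 Encapsulation efficiency is (Total RNA − Free RNA)/Total RNA. Free RNA was quantified by RiboGreen fluorescence (488/525 nm, ~10 min, RT, dark) in plain TE buffer; total RNA was quantified after LNP lysis with 0.2% Triton X-100, both against RNA standard curves.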

Compound	Number mean (nm) [1]	PDI [1]	Z-avg (nm) [1]	pKa [2]	Serum TTR % TSS (Transthyretin (TTR)) [%]	Serum TTR (Transthyretin (TTR)) [µg/mL]	Encapsulation (%) [3]
CCCCC/C=C\C/C=C\CCCCCCCC(=O)OCC(COC(=O)CCC(OCCCCCCCC)OCCCCCCCC)COC(=O)N1CCN(CC)CC1 (stereo not shown) [Compound 48, 3-((4,4-bis(octyloxy)butanoyl)oxy)-2-((((9Z,12Z)-octadeca-9,12-dienoyl)oxy)methyl)propyl 4-ethylpiperazine-1-carboxylate]	45.32 nm	0.085	64.68 nm	5.3	82	915	97%
CCCCCCCCCCOC(=O)CCCCCCCC(=O)OCC(COC(=O)CCC(OCCCCCCCC)OCCCCCCCC)COC(=O)OCC1CCCN(C)C1 (stereo not shown) [Compound 71, 1-(3-((4,4-bis(octyloxy)butanoyl)oxy)-2-(((((1-methylpiperidin-3-yl)methoxy)carbonyl)oxy)methyl)propyl) 9-decyl nonanedioate]	76.95 nm	0.035	95.57 nm	6.44	50	462	99%
CCCCCCCCCCOC(=O)CCCCCCCC(=O)OCC(COC(=O)CCCCCC(=O)OC(CCCCCCCC)CCCCCCCC)COC(=O)CCCN(C)C (stereo not shown) [Compound 82, 1-decyl 9-(3-((4-(dimethylamino)butanoyl)oxy)-2-(((7-(heptadecan-9-yloxy)-7-oxoheptanoyl)oxy)methyl)propyl) nonanedioate]	94.01 nm	0.038	117.5 nm	6.31	126	953	98%
CCCCCC/C=C\COC(=O)CCCCCCCC(=O)OCC(COC(=O)CCC(OCCCCCCC)OCCCCCCC)COC(=O)OCCCN(CC)CC (stereo not shown) [Compound 84, (Z)-1-(3-((4,4-bis(heptyloxy)butanoyl)oxy)-2-((((3-(diethylamino)propoxy)carbonyl)oxy)methyl)propyl) 9-(non-2-en-1-yl) nonanedioate]	86.08 nm	0.086	114.2 nm	6.16	71	648	95%
CCCCC/C=C\C/C=C\CCCCCCCC(=O)OCC(COC(=O)CCCCN(C)C)COC(=O)CCC(OCCCCCCCC)OCCCCCCCC (stereo not shown) [Compound 25]	61 nm	0.080	87 nm	7.65	112	1013	99%
CCCCC/C=C\C/C=C\CCCCCCCC(=O)OCC(COC(=O)CCC(OCCCCCCCC)OCCCCCCCC)COC(=O)OCC1(C)CCCN(CC)C1 (stereo not shown) [Compound 52, 3-((4,4-bis(octyloxy)butanoyl)oxy)-2-(((((1-ethyl-3-methylpiperidin-3-yl)methoxy)carbonyl)oxy)methyl)propyl (9Z,12Z)-octadeca-9,12-dienoate]	69.4 nm	0.032	86.72 nm	7.8	84	935	99%
CCCCCC/C=C\COC(=O)CCCCCCCC(=O)OCC(COC(=O)CCCC(=O)OC(CCCCCCCC)CCCCCCCC)COC(=O)OCCCN(CC)CC (stereo not shown) [Compound 86, (Z)-1-(3-(((3-(diethylamino)propoxy)carbonyl)oxy)-2-(((5-(heptadecan-9-yloxy)-5-oxopentanoyl)oxy)methyl)propyl) 9-(non-2-en-1-yl) nonanedioate]	81.23 nm	0.016	99.01 nm	6.16	64	582	98%
CCCCCCCCCCOC(=O)CCCCCCCCCC(=O)OCC(COC(=O)CCC(OCCCCCCCC)OCCCCCCCC)COC(=O)OCCCN(CC)CC (stereo not shown) [Compound 90, 1-(3-((4,4-bis(octyloxy)butanoyl)oxy)-2-((((3-(diethylamino)propoxy)carbonyl)oxy)methyl)propyl) 11-decyl undecanedioate]	81.15 nm	0.017	99.62 nm	6.14	67	504	99%
CCCCC/C=C\C/C=C\CCCCCCCC(=O)OCC(COC(=O)CCC(OCCCCCCCC)OCCCCCCCC)COC(=O)NC1CCN(CC)C1 (stereo not shown) [Compound 41, 3-((4,4-bis(octyloxy)butanoyl)oxy)-2-((((1-ethylpyrrolidin-3-yl)carbamoyl)oxy)methyl)propyl (9Z,12Z)-octadeca-9,12-dienoate]	54.1 nm	0.074	74.83 nm	7.82	95	758	98%
CCCCCCCCCCOC(=O)CCCCCCCC(=O)OCC(COC(=O)CCCC(=O)OC(CCCCCCCC)CCCCCCCC)COC(=O)NCCN(CC)CC (stereo not shown) [Compound 88, 1-decyl 9-(3-(((2-(diethylamino)ethyl)carbamoyl)oxy)-2-(((5-(heptadecan-9-yloxy)-5-oxopentanoyl)oxy)methyl)propyl) nonanedioate]	99.51 nm	0.011	117.1 nm	6.84	77	582	98%
CCCCCC/C=C\COC(=O)CCCC(=O)OCC(COC(=O)CCC(OCCCCCCCC)OCCCCCCCC)COC(=O)OCCCN(CC)CC (stereo not shown) [Compound 56, (Z)-3-((4,4-bis(octyloxy)butanoyl)oxy)-2-((((3-(diethylamino)propoxy)carbonyl)oxy)methyl)propyl non-2-en-1-yl glutarate]	81.44 nm	0.067	105.2 nm	6.85	66	576	96%
CCCCCC/C=C\COC(=O)CCCCCC(=O)OCC(COC(=O)CCC(OCCCCCCCC)OCCCCCCCC)COC(=O)OCCCN(CC)CC (stereo not shown) [Compound 55, (Z)-1-(3-((4,4-bis(octyloxy)butanoyl)oxy)-2-((((3-(diethylamino)propoxy)carbonyl)oxy)methyl)propyl) 7-(non-2-en-1-yl) heptanedioate]	79.46 nm and 90.16 nm	0.048 and 0.039	101 nm and 113.2 nm	6.84	51	442	96% and 92%
CCCCCCCCCCOC(=O)CCCCCCCCCCCC(=O)OCC(COC(=O)CCC(OCCCCCCCC)OCCCCCCCC)COC(=O)OCCCN(CC)CC (stereo not shown) [Compound 91, 1-(3-((4,4-bis(octyloxy)butanoyl)oxy)-2-((((3-(diethylamino)propoxy)carbonyl)oxy)methyl)propyl) 13-decyl tridecanedioate]	75.67 nm	0.028	93.13 nm	6.08	84	633	99%
CCCCC/C=C\C/C=C\CCCCCCCC(=O)OCC(COC(=O)CCC(OCCCCCCCC)OCCCCCCCC)COC(=O)C1(C)CCN(C)CC1 (stereo not shown) [Compound 32, 3-((4,4-bis(octyloxy)butanoyl)oxy)-2-((((9Z,12Z)-octadeca-9,12-dienoyl)oxy)methyl)propyl 1,4-dimethylpiperidine-4-carboxylate]	61 nm	0.040	77 nm	7.32	43	388	99%
CCCCC/C=C\C/C=C\CCCCCCCC(=O)OCC(COC(=O)CCC(OCCCCCCCC)OCCCCCCCC)COC(=O)NC(C)CN(CC)CC (stereo not shown) [Compound 44, 3-((4,4-bis(octyloxy)butanoyl)oxy)-2-((((1-(diethylamino)propan-2-yl)carbamoyl)oxy)methyl)propyl (9Z,12Z)-octadeca-9,12-dienoate]	64.78 nm	0.025	81.19 nm	6.1	82	910	91%
CCCCC/C=C\C/C=C\CCCCCCCC(=O)OCC(COC(=O)CCC(OCCCCCCCC)OCCCCCCCC)COC(=O)NC1CCN(CC)CC1 (stereo not shown) [Compound 37, 3-((4,4-bis(octyloxy)butanoyl)oxy)-2-((((1-ethylpiperidin-4-yl)carbamoyl)oxy)methyl)propyl (9Z,12Z)-octadeca-9,12-dienoate]	44.73 nm	0.091	65.01 nm	7.84	77	617	100%
